Measurements taken from patent US10669242B2 (priority 2016, dated 2020).

Experiments:
[1] = biological target: T1, C. difficile full-length toxin TcdA (Clostridioides difficile, UniProt P16154); experiment: cell-based
T1 construct: C. difficile full-length toxins (TcdA or TcdB); purchased Enzo Life Sciences BML-G140-0050

[2] = biological target: T2, C. difficile full-length toxin TcdB (Clostridioides difficile, UniProt P18177); experiment: cell-based
T2 construct: C. difficile full-length toxins (TcdA or TcdB); purchased EMD Millipore 616377

[3] = biological target: T3, recombinant glucosyltransferase domain of C. difficile Toxin B/TcdB (Clostridioides difficile, UniProt P18177); experiment: biochemical
T3 construct: 6-His (C); purchased R&D Systems 6246-GT
T3 sequence (P18177 1-543): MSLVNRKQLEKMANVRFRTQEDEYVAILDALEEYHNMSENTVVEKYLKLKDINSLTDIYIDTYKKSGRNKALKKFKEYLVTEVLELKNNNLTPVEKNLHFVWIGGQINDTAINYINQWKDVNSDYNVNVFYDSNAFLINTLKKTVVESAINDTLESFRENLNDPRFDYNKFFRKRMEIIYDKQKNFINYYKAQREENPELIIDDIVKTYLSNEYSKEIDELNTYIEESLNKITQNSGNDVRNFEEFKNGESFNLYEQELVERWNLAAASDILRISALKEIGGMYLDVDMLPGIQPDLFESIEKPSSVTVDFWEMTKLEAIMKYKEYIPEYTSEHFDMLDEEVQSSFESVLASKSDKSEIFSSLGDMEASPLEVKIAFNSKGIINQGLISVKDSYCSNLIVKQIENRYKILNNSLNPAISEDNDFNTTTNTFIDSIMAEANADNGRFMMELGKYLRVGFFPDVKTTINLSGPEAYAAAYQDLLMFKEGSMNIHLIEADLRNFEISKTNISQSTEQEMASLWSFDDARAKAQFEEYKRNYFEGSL

C. difficile = format: in vivo, C57/BL6 mice; settings: relapse model; for weight loss, days 8-9 after infection: PO, vancomycin 20 mg/kg once per day for five days
[4] = system: C. difficile strain VPI 10463; experiment: Acute murine C. difficile infection model; format: in vivo, C57BL/6 mice; settings: for weight loss, time course: acute infection, days after infection, 8 animals per group
Source text: In a hospital environment, C. difficile infection occurs when the patient receives an antibiotic treatment that disrupts the normal gut microflora and is exposed to C. difficile spores. The patient often fails to mount a protective immune response against the acute C. difficile infection. (Rupnik, Wilcox et al. 2009). To study the acute C. difficile infection, we established a murine C. difficile infection model. Details of the infection model are provided in the “Experimental Protocol” (below).
In brief, female C57BL/6 mice were administered the following antibiotics: colistin (0.042 units/mL), gentamicin (0.035 mg/mL), kanamycin (0.4 mg/mL), metronidazole (0.215 mg/mL) and vancomycin (0.045 mg/mL) in drinking water for 3 days. The administered antibiotics disrupted the normal gut microflora in mice. On the 4th day, mice received oral administration of 0.5 mL volume containing ˜100 spores produced from a virulent clinical C. difficile isolate (strain VPI 10463). In this acute murine C. difficile infection model, we observed a similar time course of infection when compared to that of clinical patients.
Using the developed murine C. difficile infection model (Example 67), we evaluated our test compounds for their efficacy in reducing weight loss and gut inflammation caused by the acute C. difficile infection. We tested the efficacy of Example 6a and Example 5ae and used eight (8) animals in each group.
We further tested the efficacy of the Example 6a, Example 5ae, Example 4cl, and Example 5al compounds by PO administration. Vancomycin was used as a positive control. Three (3) experiments were performed utilizing a total of five (5) to sixteen (16) animals in each group.
C. difficile strain VPI 10463 was grown for four (4) days in 10 ml of BHI in a Bactron anaerobic workstation (Shel Lab). The culture was centrifuged at 2,700 g for 10 minutes. The bacterial pellet was washed with 10 mL of PBS and the centrifugation was repeated. The pellet was then re-suspended in 10 mL of PBS, incubated at 56° C. for 10 minutes, and then was frozen at −20° C. until used. Titers of spore stocks were determined by serial dilution and plating onto BHI and with 1% taurocholate and counting of colonies after incubation for 24 hours at 37° C. using the GasPak EZ Anaerobe Pouch System.
We utilized an established C. difficile murine infection model (Chen, Katchar et al. 2008). To render them susceptible to infection, female C57BL/6 mice (˜10 weeks old and weighing ˜20 g) were administered the following antibiotics (Sigma Aldrich) in drinking water for 3 days (Days −6 to −3): colistin (0.042 units/mL), gentamicin (0.035 mg/mL), kanamycin (0.4 mg/mL), metronidazole (0.215 mg/mL) and vancomycin (0.045 mg/mL). Based upon an expected water consumption of 100 mL/kg/day, the approximate doses of these antibiotics will be as follows: colistin (4.2 units/kg/day), gentamicin (3.5 mg/kg/day), kanamycin (40 mg/kg/day), metronidazole (21.5 mg/kg/day) and vancomycin (4.5 mg/kg/day). The animals were provided with regular drinking water for two days (Day −2 and Day −1), and the next day (Day 0) they were administered clindamycin phosphate (1 mg/mL solution in PBS) at 10 mL/kg by intraperitoneal injection, for a final dose of 10 mg/kg body weight. The following day (Day 1), they were orally gavaged with ˜100 spores in a 0.5 ml volume.
Compounds were administered beginning ˜8 hours after infection, and the animals were dosed twice per day for two days (Days 2-3) with a total of four doses. Compounds were prepared as 5 mg/mL suspensions in 20% PEG-400, 0.4% carboxymethyl cellulose and 0.2% Tween 80 and administered at a dose of 10 mL/kg, for a final dose of 50 mg/kg body weight.
Animals were observed and weighed two (2) to (3) times daily. Animals that were obviously moribund or had lost >20% of their initial body weight were euthanized. Sub-groups of animals were euthanized four (4) hours after the final compound dose (52 hours after infection). […]

T1 sequence (P16154 whole entry, looked up): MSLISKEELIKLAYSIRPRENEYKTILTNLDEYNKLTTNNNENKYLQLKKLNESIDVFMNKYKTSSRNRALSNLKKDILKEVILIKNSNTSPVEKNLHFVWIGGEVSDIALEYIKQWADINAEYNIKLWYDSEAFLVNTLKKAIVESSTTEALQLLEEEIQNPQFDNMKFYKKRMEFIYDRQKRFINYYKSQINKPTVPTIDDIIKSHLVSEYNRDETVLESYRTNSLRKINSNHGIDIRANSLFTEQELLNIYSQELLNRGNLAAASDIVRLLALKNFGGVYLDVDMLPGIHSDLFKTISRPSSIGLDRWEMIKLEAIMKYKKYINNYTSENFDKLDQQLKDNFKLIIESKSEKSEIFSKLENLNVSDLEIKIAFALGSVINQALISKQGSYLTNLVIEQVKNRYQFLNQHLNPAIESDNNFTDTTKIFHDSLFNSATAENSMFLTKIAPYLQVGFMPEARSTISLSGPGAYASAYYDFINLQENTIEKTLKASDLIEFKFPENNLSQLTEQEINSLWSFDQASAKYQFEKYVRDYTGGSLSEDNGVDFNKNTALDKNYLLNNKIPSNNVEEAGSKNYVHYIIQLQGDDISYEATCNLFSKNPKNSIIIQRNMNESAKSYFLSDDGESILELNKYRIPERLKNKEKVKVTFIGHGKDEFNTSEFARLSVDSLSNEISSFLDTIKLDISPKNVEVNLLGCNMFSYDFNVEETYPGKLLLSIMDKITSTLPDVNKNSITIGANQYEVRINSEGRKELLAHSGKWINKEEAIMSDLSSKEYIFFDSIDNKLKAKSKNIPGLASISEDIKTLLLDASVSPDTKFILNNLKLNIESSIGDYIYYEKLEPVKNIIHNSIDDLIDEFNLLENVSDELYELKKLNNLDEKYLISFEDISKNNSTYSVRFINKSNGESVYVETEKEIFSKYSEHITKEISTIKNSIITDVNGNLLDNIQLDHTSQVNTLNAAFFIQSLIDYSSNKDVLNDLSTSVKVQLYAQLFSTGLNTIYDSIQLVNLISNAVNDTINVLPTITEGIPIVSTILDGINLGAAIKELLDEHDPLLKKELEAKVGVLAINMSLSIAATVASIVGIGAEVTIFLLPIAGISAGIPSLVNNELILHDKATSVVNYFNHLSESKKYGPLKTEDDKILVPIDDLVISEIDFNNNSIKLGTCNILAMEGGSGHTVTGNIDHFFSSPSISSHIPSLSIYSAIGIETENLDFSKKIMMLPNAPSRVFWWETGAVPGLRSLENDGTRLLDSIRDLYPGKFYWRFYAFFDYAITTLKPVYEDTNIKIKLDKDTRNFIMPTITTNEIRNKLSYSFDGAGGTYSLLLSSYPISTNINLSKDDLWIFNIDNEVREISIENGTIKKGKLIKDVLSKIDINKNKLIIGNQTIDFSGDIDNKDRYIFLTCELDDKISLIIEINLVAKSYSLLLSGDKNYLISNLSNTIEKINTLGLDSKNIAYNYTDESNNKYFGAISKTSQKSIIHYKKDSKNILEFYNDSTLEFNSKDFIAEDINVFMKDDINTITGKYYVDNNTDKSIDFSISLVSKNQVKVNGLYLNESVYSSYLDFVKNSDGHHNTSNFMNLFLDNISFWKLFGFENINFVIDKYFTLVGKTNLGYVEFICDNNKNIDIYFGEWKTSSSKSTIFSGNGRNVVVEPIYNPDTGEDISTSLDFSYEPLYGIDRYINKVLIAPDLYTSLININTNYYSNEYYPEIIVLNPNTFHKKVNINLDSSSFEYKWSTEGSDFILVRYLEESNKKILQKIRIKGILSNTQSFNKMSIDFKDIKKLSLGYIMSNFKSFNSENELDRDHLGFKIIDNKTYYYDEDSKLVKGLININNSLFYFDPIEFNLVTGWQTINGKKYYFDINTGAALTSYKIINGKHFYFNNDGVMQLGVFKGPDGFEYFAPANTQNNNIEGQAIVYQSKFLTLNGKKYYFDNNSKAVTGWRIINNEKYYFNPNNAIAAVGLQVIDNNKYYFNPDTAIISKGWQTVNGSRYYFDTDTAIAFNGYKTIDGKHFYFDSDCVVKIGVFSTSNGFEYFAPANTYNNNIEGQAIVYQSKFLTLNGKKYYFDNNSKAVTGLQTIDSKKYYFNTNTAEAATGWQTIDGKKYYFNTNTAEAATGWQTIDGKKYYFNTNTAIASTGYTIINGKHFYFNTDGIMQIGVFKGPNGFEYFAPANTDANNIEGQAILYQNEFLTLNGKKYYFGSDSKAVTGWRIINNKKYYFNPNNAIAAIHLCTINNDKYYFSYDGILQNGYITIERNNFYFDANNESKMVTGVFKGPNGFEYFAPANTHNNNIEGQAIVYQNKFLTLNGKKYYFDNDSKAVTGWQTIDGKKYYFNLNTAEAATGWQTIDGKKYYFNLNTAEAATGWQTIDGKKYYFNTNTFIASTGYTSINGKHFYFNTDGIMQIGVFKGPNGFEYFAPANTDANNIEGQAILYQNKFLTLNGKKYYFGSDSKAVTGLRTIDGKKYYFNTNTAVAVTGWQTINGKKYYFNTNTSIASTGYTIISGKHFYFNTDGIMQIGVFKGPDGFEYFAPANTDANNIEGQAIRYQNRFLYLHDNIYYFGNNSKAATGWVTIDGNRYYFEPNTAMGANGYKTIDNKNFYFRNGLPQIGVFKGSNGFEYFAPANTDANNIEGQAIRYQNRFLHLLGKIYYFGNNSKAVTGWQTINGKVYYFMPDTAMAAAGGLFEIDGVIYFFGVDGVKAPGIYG

## O=C(Nc1ccc(C(F)(F)F)cn1)c1ccc(CN2C(=O)c3ccc(Cl)cc3NC(=O)[C@H]2Cc2ccccn2)cc1Cl [Example 5ae, (R)-2-Chloro-4-((8-chloro-2,5-dioxo-3-(pyridin-2-ylmethyl)-2,3-dihydro-1H-benzo[e][1,4]diazepin-4(5H)-yl)methyl)-N-(5-(trifluoromethyl)pyridin-2-yl)benzamide]
[1]
  IC50: 1000 to 10000 nM
[2]
  IC50: 100 to 999 nM
[3]
  IC50: < 100 nM
C. difficile; 8 mice per group
  mice that died/expired on Days 8-9: none
  relapsing disease: prevention of relapsing disease
C. difficile; Day 4, 8 mice per group
  mice euthanized due to body weight loss of >20%: 1
C. difficile
  weight loss, days 8-9 after infection: significantly reduced weight loss 8.0, 8.5 and 9.0 days after infection
[4]; PO, 52 hours after infection
  toxin effect on colon length: significantly reduced the toxin effect on colon length
[4]
  weight loss, time course: significantly reduced weight loss 2.5 and 3.0 days after infection

## COc1ccc(NC(=O)c2ccc(CN3C(=O)c4ccc(Cl)cc4NC(=O)[C@H]3Cc3ccccn3)cc2F)nc1 [Example 6a, (R)-4-((8-Chloro-2,5-dioxo-3-(pyridin-2-ylmethyl)-2,3-dihydro-1H-benzo[e][1,4]diazepin-4(5H)-yl)methyl)-2-fluoro-N-(5-methoxypyridin-2-yl)benzamide]
[1]
  IC50: 100 to 999 nM
[2]
  IC50: < 100 nM
[3]
  IC50: < 100 nM
C. difficile; 8 mice per group
  mice that died/expired on Days 8-9: none
  relapsing disease: prevention of relapsing disease
C. difficile
  weight loss, days 8-9 after infection: significantly reduced weight loss 8.0, 8.5 and 9.0 days after infection
[4]
  weight loss, time course: significantly reduced weight loss 2.25, 2.5 and 3.0 days after infection
